pEC50: −log10 of the molar value.
Biological target: human GPR119 (Homo sapiens (Human), UniProt Q8TDV5)
Test: AlphaScreen cAMP assay in Min-6/hGPR119 cells (GPR119 activation, intracellular cAMP)
Assay type: cell-based
Settings: MIN6 cells stably transfected with human GPR119; 45 minutes' incubation at RT; AlphaScreen cAMP Assay Kit
Method: The compounds of formula I according to the invention are GPR119 agonists. The effect of the compounds on the activation of GPR119 and on the stimulation of intracellular cAMP concentration is determined using the AlphaScreen cAMP Assay Kit (Cat. No. #6760625R) made by PerkinElmer.
MIN6 cells [Miyazaki J et al. Endocrinology. 1990 July; 127(1):126-32] were stably transfected with an expression vector for human GPR119 cDNA (Acc. No. NP_848566). Min-6/hGPR119 cells are cultured in DMEM, 10% FBS, 50 μM β-mercaptoethanol, 0.3 mg/mL Geniticin, 2 mM GlutaMAX at 37° C. 5% CO2. For the assay, the cells are placed in Optiplates (white, 384-well, 160W-barcoded, TC, sterile with lid, Cat. No. #6007688 (Perkin Elmer); 10000 cells/well; 50 μl). The plates covered with lids are then incubated for 24 hours at 37° C./5% CO2.
After the medium has been sucked out of the wells completely, 10 μl of the test compound are added, the compounds are diluted beforehand with stimulating buffer (140 mM NaCl, 3.6 mM KCl, 0.5 mM NaH2PO4, 0.5 mM MgSO4, 1.5 mM CaCl2, 10 mM Hepes, 5 mM NaHCO3; pH 7.4. 0.5 mM IBMX and 0.1% BSA, the final DMSO concentration is 1%). After 45 minutes' incubation at RT, the cAMP concentrations are determined using the AlphaScreen cAMP Assay Kit (Cat. No. #6760625R from PerkinElmer).

Sequence of human GPR119 (Q8TDV5 whole entry): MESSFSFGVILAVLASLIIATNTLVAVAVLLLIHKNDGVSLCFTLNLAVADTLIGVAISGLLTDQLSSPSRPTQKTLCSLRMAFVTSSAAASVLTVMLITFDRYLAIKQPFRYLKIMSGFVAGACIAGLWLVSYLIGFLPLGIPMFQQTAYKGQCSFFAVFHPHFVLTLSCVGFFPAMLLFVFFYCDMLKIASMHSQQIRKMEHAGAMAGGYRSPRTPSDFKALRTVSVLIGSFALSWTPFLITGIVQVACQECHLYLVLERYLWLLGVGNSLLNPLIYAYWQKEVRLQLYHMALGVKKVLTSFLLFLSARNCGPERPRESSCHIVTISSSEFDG

SMILES | pEC50
CCC1CC(=O)NN=C1c1ccc2nc(-c3ccc(F)c(OC)c3)oc2c1 (stereo not shown) [Example 93, 5-ethyl-6-[2-(4-fluoro-3-methoxy-phenyl)-benzoxazol-6-yl]-4,5-dihydro-2H-pyridazin-3-one] | 6.40
Cc1cccc(-c2nc3ccc(C4=NNC(=O)C5CC45)cc3o2)c1 (stereo not shown) [Example 12, 5-(2-m-tolyl-benzoxazol-6-yl)-3,4-diaza-bicyclo[4.1.0]hept-4-en-2-one] | 6.61
CCC1CC(=O)NN=C1c1ccc2nc(-c3cccc(OCCN(CC(C)C)CC(C)C)c3)oc2c1 (stereo not shown) [Example 156, 6-{2-[3-(2-diisobutylamino-ethoxy)-phenyl]-benzoxazol-6-yl}-5-ethyl-4,5-dihydro-2H-pyridazin-3-one] | 6.61
CC[C@H]1C(c2ccc3nc(-c4ccccc4)oc3c2)=NNC(=O)[C@H]1C [Example 146, (4S,5R)-5-ethyl-4-methyl-6-(2-phenyl-1,3-benzoxazol-6-yl)-2,3,4,5-tetrahydropyridazin-3-one] | 5.05
CCC1CC(=O)NN=C1c1ccc2nc(-c3ccc(/C=C/c4ccccc4)cc3)oc2c1 (stereo not shown) [Example 75, 5-ethyl-6-{2-[4-styryl-phenyl]-benzoxazol-6-yl}-4,5-dihydro-2H-pyridazin-3-one] | 6.42
CC[C@H]1C(=O)NN=C(c2ccc3nc(-c4ccccc4)oc3c2)[C@H]1C [Example 127, (4R,5S)-4-ethyl-5-methyl-6-(2-phenyl-1,3-benzoxazol-6-yl)-2,3,4,5-tetrahydropyridazin-3-one] | 5.59
CCC1CC(=O)NN=C1c1ccc2nc(-c3ccc(OC[C@H]4CCCN4)cc3)oc2c1 (stereo partly drawn) [Example 239, 5-ethyl-6-(2-{4-[(2R)-pyrrolidin-2-ylmethoxy]phenyl}-1,3-benzoxazol-6-yl)-2,3,4,5-tetrahydropyridazin-3-one] | 5.78
CC1CC(=O)NN=C1c1ccc2nc(-c3cccc(OCC4CCN(C(=O)OC(C)(C)C)CC4)c3)oc2c1 (stereo not shown) [Example 69, tert-butyl 4-{3-[6-(4-methyl-6-oxo-1,4,5,6-tetrahydro-pyridazin-3-yl)-benzoxazol-2-yl]-phenoxymethyl}-piperidin-1-carboxylate] | 6.84
CCCOc1ccc(-c2nc3ccc(C4=NNC(=O)CC4CC)cc3o2)cc1 (stereo not shown) [Example 52, 5-ethyl-6-[2-(4-propoxy-phenyl)-benzoxazol-6-yl]-4,5-dihydro-2H-pyridazin-3-one] | 6.72
CCC1CC(=O)NN=C1c1ccc2nc(-c3cccc(OCc4ccncc4)c3)oc2c1 (stereo not shown) [Example 150, 5-ethyl-6-{2-[3-(pyridin-4-ylmethoxy)-phenyl]-benzoxazol-6-yl}-4,5-dihydro-2H-pyridazin-3-one] | 5.90
CCC1CC(=O)NN=C1c1ccc2nc(-c3cc(C)cs3)oc2c1 (stereo not shown) [Example 97, 5-ethyl-6-[2-(4-methyl-thiophen-2-yl)-benzoxazol-6-yl]-4,5-dihydro-2H-pyridazin-3-one] | 6.65
CC[C@H]1CC(=O)NN=C1c1ccc2nc(-c3ccc(OCCN(C(C)C)C(C)C)cc3)oc2c1 [Example 258, (S)-6-{2-[4-(2-diisopropylamino-ethoxy)-phenyl]-benzoxazol-6-yl}-5-ethyl-4,5-dihydro-2H-pyridazin-3-one] | 6.22
CCC1CC(=O)NN=C1c1ccc2nc(-c3ccc(OC4CCOC4)cc3)oc2c1 (stereo not shown) [Example 181, 5-ethyl-6-{2-[4-(tetrahydro-furan-3-yloxy)-phenyl]-benzoxazol-6-yl}-4,5-dihydro-2H-pyridazin-3-one] | 6.81
CCC1CC(=O)NN=C1c1ccc2nc(-c3cccc(OCc4cccnc4)c3)oc2c1 (stereo not shown) [Example 45, 5-ethyl-6-{2-[3-(pyridin-3-ylmethoxy)-phenyl]-benzoxazol-6-yl}-4,5-dihydro-2H-pyridazin-3-one] | 6.09
CCC1CC(=O)NN=C1c1ccc2nc(-c3ccc(OCc4ccsc4)cc3)oc2c1 (stereo not shown) [Example 48, 5-ethyl-6-{2-[4-(thiophen-3-ylmethoxy)-phenyl]-benzoxazol-6-yl}-4,5-dihydro-2H-pyridazin-3-one] | 6.46
CC1CC(=O)NN=C1c1ccc2nc(-c3ccccc3)oc2c1 (stereo not shown) [Example 82, 5-methyl-6-(2-phenyl-benzoxazol-6-yl)-4,5-dihydro-2H-pyridazin-3-one] | 6.72
CO[C@@H]1CC(=O)NN=C1c1ccc2nc(-c3ccccc3)oc2c1 [Example 27, (R)-5-methoxy-6-(2-phenyl-benzoxazol-6-yl)-4,5-dihydro-2H-pyridazin-3-one] | 6.35
CCC1SC(=O)NN=C1c1ccc2nc(-c3ccccc3)oc2c1 (stereo not shown) [Example 77, 6-ethyl-5-(2-phenyl-benzoxazol-6-yl)-3,6-dihydro-[1,3,4]thiadiazin-2-one] | 6.85
CCC1CC(=O)NN=C1c1ccc2nc(-c3ccc(OCC4CCN(S(C)(=O)=O)CC4)cc3)oc2c1 (stereo not shown) [Example 74, 5-ethyl-6-{2-[4-(1-methanesulphonyl-piperidin-4-ylmethoxy)-phenyl]-benzoxazol-6-yl}-4,5-dihydro-2H-pyridazin-3-one] | 6.62
O=C1NN=C(c2ccc3nc(-c4ccc(OCCN5CCOCC5)cc4)oc3c2)C2CC12 (stereo not shown) [Example 137, 5-{2-[4-(2-morpholin-4-yl-ethoxy)-phenyl]-benzoxazol-6-yl}-3,4-diaza-bicyclo[4.1.0]hept-4-en-2-one] | 6.30
CCC1CC(=O)NN=C1c1ccc2nc(-c3ccc(OCC(C)(C)N4CCCC4)cc3)oc2c1 (stereo not shown) [Example 229, 5-ethyl-6-(2-{4-[2-methyl-2-(pyrrolidin-1-yl)propoxy]phenyl}-1,3-benzoxazol-6-yl)-2,3,4,5-tetrahydropyridazin-3-one] | 6.40
CCC1CC(=O)NN=C1c1ccc2nc(-c3ccc(OCCN4CCCC4=O)cc3)oc2c1 (stereo not shown) [Example 167, 5-ethyl-6-(2-{4-[2-(2-oxo-pyrrolidin-1-yl)-ethoxy]-phenyl}-benzoxazol-6-yl)-4,5-dihydro-2H-pyridazin-3-one] | 5.99
O=c1ccc(-c2ccc3nc(-c4cccs4)oc3c2)n[nH]1 [Example 257, 6-(2-thiophen-2-yl-benzoxazol-6-yl)-2H-pyridazin-3-one] | 6.34
CCC1CC(=O)NN=C1c1ccc2nc(-c3ccc(O[C@H]4CCC[C@@H]4N4CCCCC4)cc3)oc2c1 (relative stereo) [Example 225, 5-ethyl-6-{2-[4-(trans-2-piperidin-1-yl-cyclopentyloxy)-phenyl]-benzoxazol-6-yl}-4,5-dihydro-2H-pyridazin-3-one] | 6.64

Stronger by pEC50, values ahead:

pEC50 | SMILES
7.17 | CCC1CC(=O)NN=C1c1ccc2nc(-c3ccc(Oc4ccccc4)cc3)oc2c1 (stereo not shown) [Example 95, 5-ethyl-6-[2-(4-phenoxy-phenyl)-benzoxazol-6-yl]-4,5-dihydro-2H-pyridazin-3-one]
7.21 | CCC1CC(=O)NN=C1c1ccc2nc(-c3ccc(OCCN4CCSCC4)cc3)oc2c1 (stereo not shown) [Example 247, 5-ethyl-6-{2-[4-(2-thiomorpholin-4-yl-ethoxy)-phenyl]-benzoxazol-6-yl}-4,5-dihydro-2H-pyridazin-3-one]
6.97 | CCC1CC(=O)NN=C1c1ccc2nc(-c3ccc(OC4CCCCC4O)cc3)oc2c1 (stereo not shown) [Example 212, 5-ethyl-6-(2-{4-[(2-hydroxycyclohexyl)oxy]phenyl}-1,3-benzoxazol-6-yl)-2,3,4,5-tetrahydropyridazin-3-one]
7.23 | CCC1CC(=O)NN=C1c1ccc2nc(-c3ccc(OC(C)C)cc3)oc2c1 (stereo not shown) [Example 99, 5-ethyl-6-[2-(4-isopropoxy-phenyl)-benzoxazol-6-yl]-4,5-dihydro-2H-pyridazin-3-one]
7.27 | CCC1CC(=O)NN=C1c1ccc2nc(-c3ccc(OCCN4C[C@@H](C)O[C@@H](C)C4)cc3)oc2c1 (stereo partly drawn) [Example 246, 6-(2-{4-[2-(cis-2,6-dimethyl-morpholin-4-yl)-ethoxy]-phenyl}-benzoxazol-6-yl)-5-ethyl-4,5-dihydro-2H-pyridazin-3-one]
7.06 | CC[C@H]1C(c2ccc3nc(-c4ccc(OC(C)C)cc4)oc3c2)=NNC(=O)[C@@H]1C [Example 208, (4R,5R)-5-ethyl-4-methyl-6-{2-[4-(propan-2-yloxy)phenyl]-1,3-benzoxazol-6-yl}-2,3,4,5-tetrahydropyridazin-3-one]
7.28 | CCC1CC(=O)NN=C1c1ccc2nc(-c3ccc(OC[C@H]4CCCN4C(=O)OC(C)(C)C)cc3)oc2c1 (stereo partly shown) [Example 227]
7.62 | CCC[C@H]1C(=O)NN=C(c2ccc3nc(-c4ccc(OC(C)C)cc4)oc3c2)[C@@H]1C [Example 260, (4R,5R)-5-methyl-6-{2-[4-(propan-2-yloxy)phenyl]-1,3-benzoxazol-6-yl}-4-propyl-2,3,4,5-tetrahydropyridazin-3-one]
7.43 | CCC[C@@H]1C(=O)NN=C(c2ccc3nc(-c4ccc(OC(C)C)cc4)oc3c2)[C@H]1C (relative stereo) [Example 171, trans-6-[2-(4-isopropoxy-phenyl)-benzoxazol-6-yl]-5-methyl-4-propyl-4,5-dihydro-2H-pyridazin-3-one]
7.25 | CCC[C@@H]1C(=O)NN=C(c2ccc3nc(-c4ccccc4)oc3c2)[C@H]1C (relative stereo) [Example 128, trans-5-methyl-6-(2-phenyl-benzoxazol-6-yl)-4-propyl-4,5-dihydro-2H-pyridazin-3-one]

Source: US8772323B2, “Benzoxazole- and tetrahydrobenzoxazole-substituted pyridazinones as GPR119 agonists” (Boehringer Ingelheim International GmbH, priority 2010, dated 2014)
